From EP4722207A1, “OXOISOINDOLINYL-SUBSTITUTED TETRAHYDROPYRIMIDINEDIONE DERIVATIVE AND USE THEREOF” (Gluetacs Therapeutics (Shanghai) Co., Ltd., priority 2023, dated 2024)

How the values were obtained:
WEE1 = molecular target: T1, WEE1 (Homo sapiens, UniProt P30291+Q96SW2); experiment: Western-blot assay, substrate protein degradation in hPBMCs: WEE1; type: cell-based; details: for WEE1 substrate protein remaining %: compounds at 50 nM and 500 nM, 24 hours; for substrate protein remaining % WEE1: 24 hours of compound treatment, 50 nM and 500 nM
T1 construct: effects of the compounds of the present disclosure on the expression of target proteins in cells; endogenous in cells; host or cells: human PBMCs (hPBMCs)
T1 sequence (P30291 whole entry): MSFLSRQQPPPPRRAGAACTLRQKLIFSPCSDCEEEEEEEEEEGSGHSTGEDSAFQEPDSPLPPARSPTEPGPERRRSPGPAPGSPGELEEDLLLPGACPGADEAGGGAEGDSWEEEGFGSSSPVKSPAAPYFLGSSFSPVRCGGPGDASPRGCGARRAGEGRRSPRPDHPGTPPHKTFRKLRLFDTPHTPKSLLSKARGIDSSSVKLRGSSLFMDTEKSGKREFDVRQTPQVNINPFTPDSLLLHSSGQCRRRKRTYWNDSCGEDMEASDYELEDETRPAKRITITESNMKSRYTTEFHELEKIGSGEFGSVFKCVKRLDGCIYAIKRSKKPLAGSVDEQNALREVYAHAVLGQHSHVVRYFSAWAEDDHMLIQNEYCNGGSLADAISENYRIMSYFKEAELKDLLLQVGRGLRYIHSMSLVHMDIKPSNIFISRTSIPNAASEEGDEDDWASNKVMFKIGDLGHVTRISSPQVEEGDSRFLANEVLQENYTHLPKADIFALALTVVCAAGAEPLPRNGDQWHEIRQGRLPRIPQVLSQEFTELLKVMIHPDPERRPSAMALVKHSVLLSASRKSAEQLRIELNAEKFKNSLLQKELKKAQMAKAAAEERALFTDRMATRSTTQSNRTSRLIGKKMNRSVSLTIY
T1 sequence (Q96SW2 whole entry): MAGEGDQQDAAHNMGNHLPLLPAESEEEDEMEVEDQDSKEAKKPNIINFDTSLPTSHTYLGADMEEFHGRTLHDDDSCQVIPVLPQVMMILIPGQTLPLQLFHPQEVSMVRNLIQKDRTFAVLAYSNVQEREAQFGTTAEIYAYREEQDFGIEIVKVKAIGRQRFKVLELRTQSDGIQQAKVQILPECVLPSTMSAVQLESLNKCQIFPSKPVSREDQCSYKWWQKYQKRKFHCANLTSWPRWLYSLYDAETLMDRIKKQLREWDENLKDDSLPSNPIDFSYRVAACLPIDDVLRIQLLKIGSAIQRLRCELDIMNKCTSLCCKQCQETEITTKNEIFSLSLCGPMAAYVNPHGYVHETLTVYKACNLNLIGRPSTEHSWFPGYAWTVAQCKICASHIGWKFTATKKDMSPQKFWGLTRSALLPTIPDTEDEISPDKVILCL
T1 sequence (Q16531 whole entry partner): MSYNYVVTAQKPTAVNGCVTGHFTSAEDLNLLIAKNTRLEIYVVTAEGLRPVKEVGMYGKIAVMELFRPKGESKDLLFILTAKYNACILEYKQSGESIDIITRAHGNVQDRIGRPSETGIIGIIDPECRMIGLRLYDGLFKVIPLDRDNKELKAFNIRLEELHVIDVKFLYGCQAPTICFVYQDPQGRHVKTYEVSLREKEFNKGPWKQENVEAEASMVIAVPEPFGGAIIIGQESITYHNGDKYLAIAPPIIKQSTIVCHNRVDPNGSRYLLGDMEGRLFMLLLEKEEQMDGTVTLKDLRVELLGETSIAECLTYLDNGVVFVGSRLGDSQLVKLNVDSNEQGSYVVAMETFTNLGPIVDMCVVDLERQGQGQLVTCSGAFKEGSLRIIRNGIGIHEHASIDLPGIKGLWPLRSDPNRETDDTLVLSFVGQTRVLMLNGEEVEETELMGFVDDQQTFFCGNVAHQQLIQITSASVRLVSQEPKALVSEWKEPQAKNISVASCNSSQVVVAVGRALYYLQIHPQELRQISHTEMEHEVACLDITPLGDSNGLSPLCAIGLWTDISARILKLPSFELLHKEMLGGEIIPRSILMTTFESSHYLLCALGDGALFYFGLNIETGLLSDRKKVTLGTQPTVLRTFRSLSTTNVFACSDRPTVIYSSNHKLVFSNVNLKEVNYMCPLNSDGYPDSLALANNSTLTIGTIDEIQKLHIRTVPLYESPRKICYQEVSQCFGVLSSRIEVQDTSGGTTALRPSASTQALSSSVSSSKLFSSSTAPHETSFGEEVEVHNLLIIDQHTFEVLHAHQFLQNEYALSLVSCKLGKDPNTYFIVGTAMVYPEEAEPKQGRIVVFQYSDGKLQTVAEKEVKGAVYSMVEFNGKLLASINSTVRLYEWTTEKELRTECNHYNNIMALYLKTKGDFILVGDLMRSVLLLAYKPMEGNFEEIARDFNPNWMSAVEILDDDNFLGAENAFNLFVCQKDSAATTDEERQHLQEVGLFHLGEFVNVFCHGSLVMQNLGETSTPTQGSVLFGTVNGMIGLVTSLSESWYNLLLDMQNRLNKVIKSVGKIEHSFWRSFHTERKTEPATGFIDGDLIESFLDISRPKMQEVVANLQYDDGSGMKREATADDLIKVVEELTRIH

IKZF3 = molecular target: T2, IKZF3 (Homo sapiens, UniProt Q96SW2+Q9UKT9); experiment: Western-blot assay, substrate protein degradation in hPBMCs: IKZF3; type: cell-based; details: for IKZF3 substrate protein remaining %: compounds at 50 nM and 500 nM, 24 hours; for substrate protein remaining % IKZF3: 24 hours of compound treatment, 50 nM and 500 nM
T2 construct: effects of the compounds of the present disclosure on the expression of target proteins in cells; endogenous in cells; host or cells: human PBMCs (hPBMCs)

GSPT1 = molecular target: T3, GSPT1 (Homo sapiens, UniProt P15170+Q96SW2); experiment: Western-blot assay, substrate protein degradation in hPBMCs: GSPT1; type: cell-based; details: for GSPT1 substrate protein remaining %: compounds at 50 nM and 500 nM, 24 hours; for substrate protein remaining % GSPT1: 24 hours of compound treatment, 50 nM and 500 nM
T3 construct: effects of the compounds of the present disclosure on the expression of target proteins in cells; endogenous in cells; host or cells: human PBMCs (hPBMCs)
T3 sequence (P15170 whole entry): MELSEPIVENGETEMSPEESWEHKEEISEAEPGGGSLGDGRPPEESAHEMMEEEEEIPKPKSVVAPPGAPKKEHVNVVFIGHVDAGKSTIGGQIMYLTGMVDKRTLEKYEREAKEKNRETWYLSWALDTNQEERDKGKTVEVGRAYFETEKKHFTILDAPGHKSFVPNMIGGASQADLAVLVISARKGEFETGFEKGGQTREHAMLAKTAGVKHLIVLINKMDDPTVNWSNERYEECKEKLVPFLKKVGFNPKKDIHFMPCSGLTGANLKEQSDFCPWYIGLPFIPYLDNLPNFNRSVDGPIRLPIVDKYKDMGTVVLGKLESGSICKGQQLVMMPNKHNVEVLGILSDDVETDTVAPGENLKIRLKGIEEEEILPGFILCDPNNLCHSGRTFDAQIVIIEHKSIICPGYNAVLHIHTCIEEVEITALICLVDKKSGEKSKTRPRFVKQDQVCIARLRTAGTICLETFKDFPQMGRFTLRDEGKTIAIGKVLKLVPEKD
T3 sequence (Q96SW2 whole entry): as the sequence (Q96SW2 whole entry) above
T3 sequence (Q16531 whole entry partner): as the sequence (Q16531 whole entry partner) above

IKZF2 = molecular target: T4, IKZF2 (Homo sapiens, UniProt Q96SW2+Q9UKS7); experiment: Western-blot assay, substrate protein degradation in hPBMCs: IKZF2; type: cell-based; details: for IKZF2 substrate protein remaining %: compounds at 50 nM and 500 nM, 24 hours; for substrate protein remaining % IKZF2: 24 hours of compound treatment, 50 nM and 500 nM
T4 construct: effects of the compounds of the present disclosure on the expression of target proteins in cells; endogenous in cells; host or cells: human PBMCs (hPBMCs)
T4 sequence (Q9UKS7 whole entry): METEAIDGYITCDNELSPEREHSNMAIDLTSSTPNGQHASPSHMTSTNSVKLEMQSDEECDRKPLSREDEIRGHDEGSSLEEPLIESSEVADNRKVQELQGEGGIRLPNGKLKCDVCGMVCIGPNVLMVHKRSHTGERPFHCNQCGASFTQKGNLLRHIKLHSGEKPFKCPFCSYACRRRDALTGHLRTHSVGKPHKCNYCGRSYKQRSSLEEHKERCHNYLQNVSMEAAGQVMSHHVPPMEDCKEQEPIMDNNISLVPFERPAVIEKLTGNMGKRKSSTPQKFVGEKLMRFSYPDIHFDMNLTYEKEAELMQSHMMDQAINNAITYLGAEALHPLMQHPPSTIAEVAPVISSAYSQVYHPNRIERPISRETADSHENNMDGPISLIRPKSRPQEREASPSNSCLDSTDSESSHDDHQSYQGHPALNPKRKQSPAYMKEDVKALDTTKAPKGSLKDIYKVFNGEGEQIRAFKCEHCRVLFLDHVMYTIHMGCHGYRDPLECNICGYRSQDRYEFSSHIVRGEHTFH
T4 sequence (Q96SW2 whole entry): as the sequence (Q96SW2 whole entry) above
T4 sequence (Q16531 whole entry partner): as the sequence (Q16531 whole entry partner) above

Jurkat = experiment: Cell viability assay (CellTiter-Meiluncell Luminescent), tumor cell proliferation, Jurkat; details: Homo sapiens, 96 h, read-out: inhibitory activity (IC50, nM) against tumor cells proliferation, Jurkat
CK1α = molecular target: T5, CK1α (Homo sapiens, UniProt P48729+Q96SW2); experiment: Western-blot assay, substrate protein degradation in hPBMCs: CK1α; type: cell-based; details: for CK1α substrate protein remaining %: compounds at 50 nM and 500 nM, 24 hours; for substrate protein remaining % CK1α: 24 hours of compound treatment, 50 nM and 500 nM
T5 construct: effects of the compounds of the present disclosure on the expression of target proteins in cells; endogenous in cells; host or cells: human PBMCs (hPBMCs)
T5 sequence (P48729 whole entry): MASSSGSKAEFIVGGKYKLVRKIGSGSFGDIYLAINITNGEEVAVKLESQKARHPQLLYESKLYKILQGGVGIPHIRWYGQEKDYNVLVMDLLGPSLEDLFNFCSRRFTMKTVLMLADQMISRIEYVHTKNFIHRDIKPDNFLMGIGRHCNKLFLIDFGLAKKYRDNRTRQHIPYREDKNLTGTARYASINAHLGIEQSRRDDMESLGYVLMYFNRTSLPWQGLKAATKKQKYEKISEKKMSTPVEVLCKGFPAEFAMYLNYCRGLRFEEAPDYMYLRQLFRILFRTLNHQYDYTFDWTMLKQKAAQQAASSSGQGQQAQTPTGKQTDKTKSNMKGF
T5 sequence (Q96SW2 whole entry): as the sequence (Q96SW2 whole entry) above
T5 sequence (Q16531 whole entry partner): as the sequence (Q16531 whole entry partner) above

IKZF1 = molecular target: T6, IKZF1 (Homo sapiens, UniProt Q13422+Q96SW2); experiment: Western-blot assay, substrate protein degradation in hPBMCs: IKZF1; type: cell-based; details: for IKZF1 substrate protein remaining %: compounds at 50 nM and 500 nM, 24 hours; for substrate protein remaining % IKZF1: 24 hours of compound treatment, 50 nM and 500 nM
T6 construct: effects of the compounds of the present disclosure on the expression of target proteins in cells; endogenous in cells; host or cells: human PBMCs (hPBMCs)
T6 sequence (Q13422 whole entry): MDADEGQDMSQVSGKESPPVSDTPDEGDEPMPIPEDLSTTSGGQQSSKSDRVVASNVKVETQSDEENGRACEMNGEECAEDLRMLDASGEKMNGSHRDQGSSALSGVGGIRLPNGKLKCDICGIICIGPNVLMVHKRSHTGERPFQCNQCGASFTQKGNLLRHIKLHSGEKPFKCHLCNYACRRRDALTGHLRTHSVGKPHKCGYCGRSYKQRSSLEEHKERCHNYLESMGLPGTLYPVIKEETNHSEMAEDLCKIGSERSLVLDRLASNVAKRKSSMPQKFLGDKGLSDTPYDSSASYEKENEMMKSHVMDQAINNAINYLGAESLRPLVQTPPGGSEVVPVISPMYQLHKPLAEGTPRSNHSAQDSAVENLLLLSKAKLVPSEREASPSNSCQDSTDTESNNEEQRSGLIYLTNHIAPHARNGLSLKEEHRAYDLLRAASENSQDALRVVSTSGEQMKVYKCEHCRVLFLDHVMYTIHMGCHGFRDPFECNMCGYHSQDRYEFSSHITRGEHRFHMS
T6 sequence (Q96SW2 whole entry): as the sequence (Q96SW2 whole entry) above
T6 sequence (Q16531 whole entry partner): as the sequence (Q16531 whole entry partner) above

MV-4-11 = experiment: Cell viability assay (CellTiter-Meiluncell Luminescent), tumor cell proliferation, MV-4-11; details: Homo sapiens, MV4-11, 96 h; for IC50: read-out: inhibitory activity (IC50, nM) against tumor cells proliferation, MV-4-11; for inhibition at 0.01 µM: read-out: Inhibition Rate at 10 nM (%); for inhibition at 0.5 µM: read-out: Inhibition Rate at 500 nM (%)
H292 = experiment: Cell viability assay (CellTiter-Meiluncell Luminescent), tumor cell proliferation, H292; details: Homo sapiens, NCI-H292, 96 h; for inhibition at 0.01 µM: read-out: Inhibition Rate at 10 nM (%); for inhibition at 0.5 µM: read-out: Inhibition Rate at 500 nM (%)
Experimental: (§1) The tumor cells used herein were cultured in a cell culture medium listed in table 2 at 37°C in an incubator with 5% CO2. Prior to experimentation, all cell lines used were correctly identified by STR profiling, and tested negative for mycoplasma contamination using a mycoplasma detection kit through routine screenings.
(§2) On the following day, the test compounds of the present disclosure were subjected to serial dilution. […] Subsequently, 0.5 µL of the test compound dilution was transferred into the 96-well plate containing the cells, with each well containing 100 µL of cell culture medium. […] Into the 96-well plate, the diluted test compounds and corresponding detection reagents were added, resulting in final test compound concentrations of 500 nM and 10 nM, respectively. The experimental procedure is described below using the diluted 2 µM test compound as an example.
(§3) After the cells were treated with the compounds of the present disclosure for a specified period, the cell viability assay reagent was added to the culture medium according to the kit's instructions to determine cell viability. […] All controls were treated using the same procedure as the compounds of the present disclosure. The growth inhibition curves for the compounds of the present disclosure were plotted using Prism GraphPad software, and the IC50 values were calculated therefrom.

H2228 = experiment: Cell viability assay (CellTiter-Meiluncell Luminescent), tumor cell proliferation, H2228; details: Homo sapiens, NCI-H2228, 96 h; for inhibition at 0.01 µM: read-out: Inhibition Rate at 10 nM (%); for inhibition at 0.5 µM: read-out: Inhibition Rate at 500 nM (%)
MM.1S = experiment: Cell viability assay (CellTiter-Meiluncell Luminescent), tumor cell proliferation, MM.1S; details: Homo sapiens, MM1.S, 96 h; for inhibition at 0.01 µM: read-out: Inhibition Rate at 10 nM (%); for inhibition at 0.5 µM: read-out: Inhibition Rate at 500 nM (%)
MDA-MB-231 = experiment: Cell viability assay (CellTiter-Meiluncell Luminescent), tumor cell proliferation, MDA-MB-231; details: Homo sapiens, MDA-MB-231, 96 h; for inhibition at 0.01 µM: read-out: Inhibition Rate at 10 nM (%); for inhibition at 0.5 µM: read-out: Inhibition Rate at 500 nM (%)
Experimental: as §1, §2, §3

| SMILES | WEE1 substrate protein remaining % (WEE1) | IKZF3 substrate protein remaining % (IKZF3) | GSPT1 substrate protein remaining % (GSPT1) | IKZF2 substrate protein remaining % (IKZF2) | IC50 (Jurkat) [nM] | CK1α substrate protein remaining % (CK1α) | IKZF1 substrate protein remaining % (IKZF1) | IC50 (MV-4-11) [nM] | substrate protein remaining % WEE1 (WEE1) | substrate protein remaining % IKZF3 (IKZF3) | inhibition at 0.01 µM (H292) [%] | inhibition at 0.5 µM (H292) [%] | inhibition at 0.01 µM (MV-4-11) [%] | inhibition at 0.5 µM (MV-4-11) [%] | substrate protein remaining % GSPT1 (GSPT1) | substrate protein remaining % IKZF2 (IKZF2) | inhibition at 0.01 µM (H2228) [%] | inhibition at 0.5 µM (H2228) [%] | inhibition at 0.01 µM (MM.1S) [%] | inhibition at 0.5 µM (MM.1S) [%] | also measured |
| --- | --- | --- | --- | --- | --- | --- | --- | --- | --- | --- | --- | --- | --- | --- | --- | --- | --- | --- | --- | --- | --- |
| O=C1CCN(N2C(=O)c3ccc(CN4CCN(c5ncc(C(F)(F)F)cc5Cl)CC4)cc3C2=O)C(=O)N1 [GT-07026, 5-((4-(3-chloro-5-(trifluoromethyl)pyridin-2-yl)piperazin-1-yl)methyl)-2-(2,4-dioxotetrahydropyrimidin-1(2H)-yl)isoindoline-1,3-dione] | A ("A" is defined as 0% ≤ substrate protein remaining % ≤ 80%) | B ("B" is defined as 80%< substrate protein remaining %≤ 100%) | A ("A" is defined as 0% ≤ substrate protein remaining % ≤ 80%) | B ("B" is defined as 80%< substrate protein remaining %≤ 100%) | 500 to 1000 | B ("B" is defined as 80%< substrate protein remaining %≤ 100%) | B ("B" is defined as 80%< substrate protein remaining %≤ 100%) | – | – | – | – | – | – | – | – | – | – | – | – | – | – |
| Cc1cccc(N2CCN(Cc3ccc4c(c3)CN(N3CCC(=O)NC3=O)C4=O)CC2)c1 [GT-06770, 1-(1-oxo-5-((4-(m-tolyl)piperazin-1-yl)methyl)isoindolin-2-yl)dihydropyrimidine-2,4(1H,3H)-dione] | A ("A" is defined as 0% ≤ substrate protein remaining % ≤ 80%) | A ("A" is defined as 0% ≤ substrate protein remaining % ≤ 80%) | A ("A" is defined as 0% ≤ substrate protein remaining % ≤ 80%) | A ("A" is defined as 0% ≤ substrate protein remaining % ≤ 80%) | 500 to 1000 | A ("A" is defined as 0% ≤ substrate protein remaining % ≤ 80%) | A ("A" is defined as 0% ≤ substrate protein remaining % ≤ 80%) | 500 to 1000 | – | – | – | – | – | – | – | – | – | – | – | – | – |
| O=C1CCN(N2Cc3cc(CN4CCC(c5ncnc6sc(-c7ccccc7)cc56)CC4)ccc3C2=O)C(=O)N1 [GT-08085, 1-(1-oxo-5-((4-(6-phenylthieno[2,3-d]pyrimidin-4-yl)piperidin-1-yl)methyl)isoindolin-2-yl)dihydropyrimidine-2,4(1H,3H)-dione] | – | – | – | – | – | – | – | – | B (80%< substrate protein remaining %≤ 100%) | B (80%< substrate protein remaining %≤ 100%) | 20 to 40 | 40 to 60 | 30 to 40 | 25 to 30 | A (0% ≤ substrate protein remaining % ≤ 80%) | B (80%< substrate protein remaining %≤ 100%) | 25 to 30 | 30 to 40 | 30 to 42 | 42 to 60 | inhibition at 0.01 µM (MDA-MB-231): 25 to 40%; inhibition at 0.5 µM (MDA-MB-231): 40 to 60%; substrate protein remaining % CK1α (CK1α): A (0% ≤ substrate protein remaining % ≤ 80%); substrate protein remaining % IKZF1 (IKZF1): B (80%< substrate protein remaining %≤ 100%) |
| O=C1CCN(N2Cc3cc(CN4CC=C(c5ncnc6sccc56)CC4)ccc3C2=O)C(=O)N1 [GT-08116, 1-(1-oxo-5-((4-(thieno[2,3-d]pyrimidin-4-yl)-3,6-dihydropyridin-1(2H)-yl)methyl)isoindolin-2-yl)dihydropyrimidine-2,4(1H,3H)-dione] | – | – | – | – | – | – | – | – | A (0% ≤ substrate protein remaining % ≤ 80%) | A (0% ≤ substrate protein remaining % ≤ 80%) | 15 to 20 | 15 to 20 | 40 to 60 | 80 to 100 | A (0% ≤ substrate protein remaining % ≤ 80%) | B (80%< substrate protein remaining %≤ 100%) | 15 to 20 | 20 to 25 | 10 to 20 | 60 to 80 | inhibition at 0.01 µM (MDA-MB-231): 25 to 40%; inhibition at 0.5 µM (MDA-MB-231): 25 to 40%; substrate protein remaining % CK1α (CK1α): A (0% ≤ substrate protein remaining % ≤ 80%); substrate protein remaining % IKZF1 (IKZF1): A (0% ≤ substrate protein remaining % ≤ 80%) |
| O=C1CCN(N2Cc3cc(CN4CCN(c5cc(Cl)cc(Cl)c5)CC4)ccc3C2=O)C(=O)N1 [GT-06776, 1-(5-((4-(3,5-dichlorophenyl)piperazin-1-yl)methyl)-1-oxoisoindolin-2-yl)dihydropyrimidine-2,4(1H,3H)-dione] | A ("A" is defined as 0% ≤ substrate protein remaining % ≤ 80%) | B ("B" is defined as 80%< substrate protein remaining %≤ 100%) | A ("A" is defined as 0% ≤ substrate protein remaining % ≤ 80%) | A ("A" is defined as 0% ≤ substrate protein remaining % ≤ 80%) | 500 to 1000 | A ("A" is defined as 0% ≤ substrate protein remaining % ≤ 80%) | B ("B" is defined as 80%< substrate protein remaining %≤ 100%) | 100 to 300 | – | – | – | – | – | – | – | – | – | – | – | – | – |
| O=C1CCN(N2C(=O)c3ccc(CN4CCN(c5ncnc6sccc56)CC4)cc3C2=O)C(=O)N1 [GT-08090, 2-(2,4-dioxotetrahydropyrimidin-1(2H)-yl)-5-((4-(thieno[2,3-d]pyrimidin-4-yl)piperazin-1-yl)methyl)isoindoline-1,3-dione] | – | – | – | – | – | – | – | – | A (0% ≤ substrate protein remaining % ≤ 80%) | B (80%< substrate protein remaining %≤ 100%) | 15 to 20 | 15 to 20 | 60 to 80 | 60 to 80 | A (0% ≤ substrate protein remaining % ≤ 80%) | B (80%< substrate protein remaining %≤ 100%) | 20 to 25 | 20 to 25 | 30 to 42 | 42 to 60 | inhibition at 0.01 µM (MDA-MB-231): 15 to 18%; inhibition at 0.5 µM (MDA-MB-231): 18 to 25%; substrate protein remaining % CK1α (CK1α): A (0% ≤ substrate protein remaining % ≤ 80%); substrate protein remaining % IKZF1 (IKZF1): B (80%< substrate protein remaining %≤ 100%) |
| O=C1CCN(N2Cc3cc(CN4CCC(c5cccc(Cl)c5Cl)CC4)ccc3C2=O)C(=O)N1 [GT-06893, 1-(5-((4-(2,3-dichlorophenyl)piperidin-1-yl)methyl)-1-oxoisoindolin-2-yl)dihydropyrimidine-2,4(1H,3H)-dione] | B ("B" is defined as 80%< substrate protein remaining %≤ 100%) | B ("B" is defined as 80%< substrate protein remaining %≤ 100%) | A ("A" is defined as 0% ≤ substrate protein remaining % ≤ 80%) | A ("A" is defined as 0% ≤ substrate protein remaining % ≤ 80%) | 500 to 1000 | B ("B" is defined as 80%< substrate protein remaining %≤ 100%) | A ("A" is defined as 0% ≤ substrate protein remaining % ≤ 80%) | 100 to 300 | – | – | – | – | – | – | – | – | – | – | – | – | – |
